This note sets out measurements from US7183061B2, “Method of expressing Heliothis ecdysone receptor fusion protein” (Syngenta Limited, priority 1996, dated 2007).

Structures are written as SMILES.

In this test the target is chimeric glucocorticoid VP16/Heliothis ecdysone receptor (UniProt O18473+P04150, DEL153-392/E478D/INS403[…]/INS405[…]/M398P/P396A/P400T/P406S/R399P/S397A/Y393A). Nature of the test: GUS levels in transgenic tobacco progeny containing pES3 and pES4. The test is classed as in vivo, Heliothis virescens. Details: expressed in transfected cells; stably transformed tobacco plants, pES3/pES4 (A11). An excerpt: The methodology described below was used to produce four different stable Tobacco vectors. The method involves three steps: • 1. pbluescript SK HindIII/EcoRI vector was ligated to either GRE6-4635SCaMVGUSNOS HindIII/EcoRI (from p221.10GRE6) or GRE6-6035SCaMVGUSNOS HindIII/EcoRI (from p221.9GRE6) resulting in plasmid pSK-46 and pSK-60. • 2. This step involves the addition of the chimeric receptor (35SGRHEcRNOS or 35SGRVP16HEcRNOS) to pSK-60 or pSK-46. Thus a pSK-60 (or pSK-46) XbaI vector was ligated with either the 3.4 kb 35SGRHEcRNOS XbaI or the 3.0 kb 35SGRVP16HEcRNOS XbaI DNA fragment to produce pSKES1 (pSKGRE6-6035SCaMVGUSNOS-35SGRHEcRNOS), pSKES2 (pSKGRE6-4635 SCaMVGUSNOS-35 SGRHEcRNOS), pSKES3 (pSKGRE6-6035SCaMVGUSNOS-35SGRVP16HEcRNOS) and pSKES4 (pSKGRE6-4635SCaMVGUSNOS-35SGRVP16HEcRNOS). • 3. Transfer from pBluescript based vectors to binary vectors. […] The DNA of the recombinant was characterised by restriction mapping and the sequence of the junctions determined. […]
Sequence of chimeric glucocorticoid VP16/Heliothis ecdysone receptor (P04150+O18473 fused with the stated changes): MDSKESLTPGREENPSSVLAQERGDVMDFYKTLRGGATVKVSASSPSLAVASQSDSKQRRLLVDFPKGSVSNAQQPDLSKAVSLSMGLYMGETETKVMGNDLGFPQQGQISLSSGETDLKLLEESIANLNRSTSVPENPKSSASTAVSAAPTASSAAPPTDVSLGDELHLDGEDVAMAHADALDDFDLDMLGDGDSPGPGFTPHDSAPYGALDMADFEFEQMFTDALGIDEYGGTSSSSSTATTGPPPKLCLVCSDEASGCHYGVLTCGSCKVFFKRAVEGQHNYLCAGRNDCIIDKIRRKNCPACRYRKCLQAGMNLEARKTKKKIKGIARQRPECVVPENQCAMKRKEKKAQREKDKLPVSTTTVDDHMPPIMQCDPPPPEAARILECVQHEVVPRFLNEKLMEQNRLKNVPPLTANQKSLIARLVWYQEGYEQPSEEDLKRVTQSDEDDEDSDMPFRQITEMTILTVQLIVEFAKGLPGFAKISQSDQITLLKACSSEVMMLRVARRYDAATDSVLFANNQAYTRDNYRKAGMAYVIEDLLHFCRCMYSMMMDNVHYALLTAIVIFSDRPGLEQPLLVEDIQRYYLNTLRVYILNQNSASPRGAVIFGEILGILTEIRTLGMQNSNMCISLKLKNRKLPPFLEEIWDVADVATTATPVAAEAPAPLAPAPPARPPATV

As for `CCc1ccc(C(=O)NN(C(=O)c2cc(C)cc(C)c2)C(C)(C)C)cc1` [RH5992, 3,5-dimethylbenzoic acid 1-1(1,1-dimethylethyl)-2(4-ethylbenzoyl)hydrazide], the “GUS levels relative to transgenic plants containing non-VP16 vectors pES1 and pES2” value is “elevated GUS levels”.
